Target: T1, human-derived receptor TLR7 (Homo sapiens, UniProt Q9NYK1)
T1 construct: host or cells: HEK-Blue hTLR7 cells (HEK293-derived reporter line)
T1 sequence (Q9NYK1 27-1049): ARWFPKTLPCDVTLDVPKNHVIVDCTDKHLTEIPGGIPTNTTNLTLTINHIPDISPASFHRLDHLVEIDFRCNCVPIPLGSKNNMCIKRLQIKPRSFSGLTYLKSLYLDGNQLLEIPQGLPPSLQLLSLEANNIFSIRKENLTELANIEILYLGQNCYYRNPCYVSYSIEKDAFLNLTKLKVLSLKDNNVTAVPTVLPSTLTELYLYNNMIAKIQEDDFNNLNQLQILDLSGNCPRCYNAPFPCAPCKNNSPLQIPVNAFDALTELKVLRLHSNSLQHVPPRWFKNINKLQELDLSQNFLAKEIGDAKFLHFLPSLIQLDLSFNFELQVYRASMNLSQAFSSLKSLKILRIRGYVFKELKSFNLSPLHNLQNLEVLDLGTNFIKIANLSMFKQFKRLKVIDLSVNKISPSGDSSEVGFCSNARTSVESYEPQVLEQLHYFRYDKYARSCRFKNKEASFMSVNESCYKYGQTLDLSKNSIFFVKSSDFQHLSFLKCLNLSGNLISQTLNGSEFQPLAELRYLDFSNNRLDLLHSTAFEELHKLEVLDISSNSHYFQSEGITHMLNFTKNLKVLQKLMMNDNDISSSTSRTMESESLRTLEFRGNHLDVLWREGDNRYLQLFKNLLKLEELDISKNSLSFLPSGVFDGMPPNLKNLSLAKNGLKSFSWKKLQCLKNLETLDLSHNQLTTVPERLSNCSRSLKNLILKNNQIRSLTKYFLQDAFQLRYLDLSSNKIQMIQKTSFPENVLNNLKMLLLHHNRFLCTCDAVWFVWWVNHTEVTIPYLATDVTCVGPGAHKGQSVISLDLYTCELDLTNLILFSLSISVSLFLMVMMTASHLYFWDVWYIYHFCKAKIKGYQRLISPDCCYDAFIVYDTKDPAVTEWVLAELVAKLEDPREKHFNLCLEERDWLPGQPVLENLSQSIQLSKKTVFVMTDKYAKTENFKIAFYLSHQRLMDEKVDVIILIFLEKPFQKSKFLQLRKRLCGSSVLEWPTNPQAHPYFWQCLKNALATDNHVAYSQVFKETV
Test: Assay on agonistic activity for human-derived receptor TLR7 (HEK-Blue hTLR7 cells, HEK-Blue Detection Medium)
Format: cell-based
Conditions: 16 h incubation, absorbance at 655 nm, read-out: EC50
Experimental: HEK-Blue™ hTLR7 cells (InvivoGen, hkb-htlr7) were cultured in a DMEM complete medium (Gibco, 12100) containing 10% FBS (Invitrogen, 10099141), 1% P/S (Invitrogen, 15140122), 10 μg/mL Blasticidin (InvivoGen, ant-bl-1), 100 μg/mL Zeocin (InvivoGen, ant-zn-1), and 100 μg/mL Normocin (InvivoGen, ant-nr-1). The cells were cultured in an incubator at 37° C. with 5% CO2. When HEK-Blue™ hTLR7 cells reached a growth density of 70%-80%, cell passage was needed.
The agonistic activity for the human-derived receptor TLR7 by HEK-Blue™ hTLR7 cells was assayed by HEK-Blue™ Detection Medium (InvivoGen, hd-det2). First, a bag of HEK-Blue™ Detection Medium powder was dissolved in 50 mL of ultra-pure sterile water for complete dissolution, and then the dissolved medium was filtered into a new 50 mL centrifuge tube through a 0.22 μm filter. Finally, antibiotics were added into the filtered detection medium until the final concentration was 1% for P/S and 100 μg/mL for Normocin. HEK-Blue™ Detection Medium was pre-heated to 37° C. in advance on the day of the assay on the activity for the TLR7 receptor, and the temperature was always maintained at 37° C.
The compound powder was dissolved in 100% DMSO (Sigma, D2650-100ML) to obtain a 10 mM stock solution, and the compound was completely dissolved by shaking with an oscillator. The stock solution of the compound was subjected to a 5-fold dilution to 2 mM with 100% DMSO. This was followed by a 3-fold serial dilution for a total of 8 concentration gradients. Then, each of the concentration gradients was subjected to a 20-fold dilution to 100 μM, 33.3 μM, 11.1 μM, 3.7 μM, 1.23 μM, […], 0.114 μM, and 0.05 μM using HEK-Blue™ Detection Medium. 20 μL of each of the dilutions was added to a 96-well cell culture plate (Corning, 3599).
On the day of the assay on the agonistic activity for the human-detived receptor TLR7, HEK-Blue™ hTLR7 cells has a growth density of 70%-80%, and the cell medium was removed. 1 mL of cell dissociation buffer (Gibco, 13151-014) was added to each 100 mm cell culture dish, and the cells were incubated in an incubator at 37° C. for 5 min. The cells were pipetted using a DMEM cell medium to obtain a single cell suspension, which was then centrifuged at 1000 rpm for 10 min to collect the cell pellet. The cell pellet was resuspended with HEK-Blue™ Detection Medium pre heated to 37° C. The cells were counted and diluted to 220,000 cells/mL. Finally, 180 μL of cell suspension (40,000 cells/well) was added to each well of the 96-well cell culture plate to which the compound had been added, and the cell suspension was mixed with the compound using a pipettor. Final concentrations of the compound were 10 μM, 3.3 μM, 1.1 μM, 0.37 μM, 0.12 μM, 0.04 μM, 0.01 μM, and 0.005 μM. After incubation in an incubator at 37° C. for 16 h, the absorbance was read at 655 nm using an M5e microplate reader (MD, USA).
The EC50 of the compound was calculated using the software GraphPad Prism (GraphPad Software, USA). The background reading of the detection culture was subtracted from the absorbance readings at 655 nm of all wells of the 96-well plate, the ratio of each well to the negative control well (the well without the compound) was calculated, and then the percentage of the ratio of each well to the positive control well (the well treated with 10 μM positive compound), i.e., the percentage of activity, was calculated. Finally, the sigmoidal dose-response (variable slope) curve between the percentage of activity and the concentration of the compound was calculated using the software GraphPad Prism to calculate the EC50 of the compound. […]

EC50, < 50 nM:
Nc1nc2ccccc2c2c1[nH]c(=S)n2Cc1ccc(CN2CCCC2)cc1 [Example 155, 4-amino-1-(4-(pyrrolidin-1-ylmethyl)benzyl)-1,3-dihydro-2H-imidazo[4,5-c]quinoline-2-thione]
CCSc1nc2c(N)nc3ccccc3c2n1Cc1ccc(CNC(C)C)cc1 [Example 191]
CCCCOc1nc(N)c2[nH]c(=O)n(Cc3ccc(CN4CCN(C(=O)COC)CC4)s3)c2n1 [Example 48]
CSc1nc2c(N)nc3ccccc3c2n1Cc1ccc(N2CCN(C)CC2)cc1 [Example 212]
CCCSc1nc2c(N)nc3ccccc3c2n1Cc1ccc(CN2CCCC2)cc1 [Example 159]
C=CCSc1nc2c(N)nc3ccccc3c2n1Cc1ccc(CN2CCCC2)cc1 [Example 166]
Nc1nc2ccccc2c2c1nc(SCCC(F)(F)F)n2Cc1ccc(CN2CCCC2)cc1 [Example 181]
CCCCOc1nc(N)c2[nH]c(=O)n(Cc3cccc(CN4CCCC4=O)c3)c2n1 [Example 42, 6-amino-2-butoxy-9-(3-((2-oxopyrrolidin-1-yl)methyl)benzyl)-7,9-dihydro-8H-purin-8-one]
COCSc1nc2c(N)nc3ccccc3c2n1Cc1ccc(CN2CCCC2)cc1 [Example 157]
CCCCOc1nc(N)c2c(n1)CN(Cc1ccc(C)c(CN3CCCC3)c1)C(=O)N2 [Example 78]
CCCCOc1nc(N)c2[nH]c(=O)n(Cc3ccc(CN4CCN(C(=O)CO)CC4)s3)c2n1 [Example 47]
Nc1nc2ccccc2c2c1nc(SCC(F)F)n2Cc1ccc(CN2CCCC2)cc1 [Example 179]
CCCCOc1nc(N)c2[nH]c(=O)n(Cc3ccc(CN4CCC(N)C4)s3)c2n1 (stereo not shown) [Example 49, 6-amino-9-((5-((3-aminopyrrolidin-1-yl)methyl)thien-2-yl)methyl)-2-butoxy-7,9-dihydro-8H-purin-8-one]
CCCCOc1nc(N)c2[nH]c(=O)n(Cc3ccc(CN4CCNCC4)s3)c2n1 [Example 46]
COc1cc(CN2CCCC2)ccc1Cn1c(SC)nc2c(N)nc3ccccc3c21 [Example 233]
CCCCOc1nc(N)c2[nH]c(=O)n(Cc3ccc(CN4CCCC4)s3)c2n1 [Example 43, 6-amino-2-butoxy-9-((5-(pyrrolidin-1-ylmethyl)thien-2-yl)methyl)-7,9-dihydro-8H-purin-8-one]
CCCCOc1nc(N)c2[nH]c(=O)n(Cc3ccc(CN4CCC(O)C4)s3)c2n1 (stereo not shown) [Example 44, 6-amino-2-butoxy-9-((5-((3-hydroxypyrrolidin-1-yl)methyl)thien-2-yl)methyl)-7,9-dihydro-8H-purin-8-one]
Nc1nc2ccccc2c2c1nc(SCC1CC1)n2Cc1ccc(CN2CCCC2)cc1 [Example 163]
CCCCOc1nc(N)c2c(n1)CN(Cc1ccc(C(=O)N3CCCC3)cc1)C(=O)N2 [Example 50, 8-amino-6-butoxy-3-(4-(pyrrolidin-1-ylcarbonyl)benzyl)-3,4-dihydropyrimido[5,4-d]pyrimidin-2(1H)-one]
C=CCSc1nc2c(N)nc3ccccc3c2n1Cc1ccc(CN2CCNCC2)cc1 [Example 215]

EC50, 50 to 100 nM:
CCCCOc1nc(N)c2c(n1)CN(Cc1ccc(CN3CCCC3)c(C)c1)C(=O)N2 [Example 66]
CCSc1nc2c(N)nc3ccccc3c2n1Cc1ccc(CN2CC[C@H](O)C2)cc1 [Example 209]
CSc1nc2c(N)nc3ccccc3c2n1Cc1ccc(CN(C)C)cc1 [Example 189]
CCSc1nc2c(N)nc3ccccc3c2n1Cc1ccc(CN2CC(O)C2)cc1 [Example 207]
CCSc1nc2c(N)nc3ccccc3c2n1Cc1ccc(CN2CCNCC2)cc1 [Example 214]
CSc1nc2c(N)nc3ccccc3c2n1Cc1ccc(CN2CCNCC2)s1 [Example 220]
COc1cc(CN2CCN(C)CC2)ccc1Cn1c(SC)nc2c(N)nc3ccccc3c21 [Example 247]
CSc1nc2c(N)nc3ccccc3c2n1Cc1ccc(CN2CC(O)C2)cc1 [Example 206]
CSc1nc2c(N)nc3ccccc3c2n1Cc1ccc(-c2cnn(CCNC3CCC3)c2)cc1 [Example 196]
COc1cc(CN2CC(O)C2)ccc1Cn1c(SC)nc2c(N)nc3ccccc3c21 [Example 244]
CSc1nc2c(N)nc3ccccc3c2n1Cc1ccc(CN2CCNCC2)cc1 [Example 213]
COc1cc(CN2CC[C@H](O)C2)ccc1Cn1c(SC)nc2c(N)nc3ccccc3c21 [Example 245]
CCN(CC)Cc1ccc(Cn2c(=O)[nH]c3c(N)nc4ccccc4c32)cc1C [Example 113]
N#CCCSc1nc2c(N)nc3ccccc3c2n1Cc1ccc(CN2CCCC2)cc1 [Example 177]
COc1cc(CNC(C)C)ccc1Cn1c(SC)nc2c(N)nc3ccccc3c21 [Example 241]
CSc1nc2c(N)nc3ccccc3c2n1Cc1ccc(CNC(C)C)cc1 [Example 188]
COc1cc(C2CCN(C)CC2)ccc1Cn1c(SC)nc2c(N)nc3ccccc3c21 [Example 246]
CSc1nc2c(N)nc3ccccc3c2n1Cc1ccc(OCCN(C)C)nc1 [Example 223]
COc1cc(OCCN(C)C)ccc1Cn1c(SC)nc2c(N)nc3ccccc3c21 [Example 248]
Nc1nc2ccccc2c2c1nc(SCCF)n2Cc1ccc(CN2CCCC2)cc1 [Example 178]
C=CCCSc1nc2c(N)nc3ccccc3c2n1Cc1ccc(CN2CCCC2)cc1 [Example 165]
COc1cc(CN2C[C@H]3CN(C)C[C@H]3C2)ccc1Cn1c(SC)nc2c(N)nc3ccccc3c21 [Example 239]
C=CCSc1nc2c(N)nc3ccccc3c2n1Cc1ccc(CN2CC[C@@H](F)C2)cc1 [Example 211]

Source: patent US20240150346A1, “CLASS OF HETEROAROMATIC COMPOUND, PREPARATION METHOD THEREFOR AND USE THEREOF” (INNOVSTONE THERAPEUTICS LIMITED, priority 2021, published 2024)
